From patent US5192672A, “Method for oxidizing hydrocarbons with a hydroxylase from a methane monooxygenase” (Amoco Corporation, priority 1991, dated 1993)
Converted amounts (≈) assume the structure as drawn. Each block holds one molecule with its values, some of them ahead of it.

Assays:
[1] = molecular target: T1, hydroxylase of methane monooxygenase (Methylosinus trichosporium, UniProt P27353); experiment: Multiple turnover oxidation of hydrocarbon substrates using hydrogen peroxide; format: biochemical, Methylosinus trichosporium OB3b; settings: H2O2 coupled
T1 construct: The novel high activity hydroxylase of the present invention was obtained from Methylosinus trichosporium OB3b; endogenous in cells; host or cells: Methylosinus trichosporium OB3b; hydroxylase purified from the bacteria
T1 sequence (P27353 1-526): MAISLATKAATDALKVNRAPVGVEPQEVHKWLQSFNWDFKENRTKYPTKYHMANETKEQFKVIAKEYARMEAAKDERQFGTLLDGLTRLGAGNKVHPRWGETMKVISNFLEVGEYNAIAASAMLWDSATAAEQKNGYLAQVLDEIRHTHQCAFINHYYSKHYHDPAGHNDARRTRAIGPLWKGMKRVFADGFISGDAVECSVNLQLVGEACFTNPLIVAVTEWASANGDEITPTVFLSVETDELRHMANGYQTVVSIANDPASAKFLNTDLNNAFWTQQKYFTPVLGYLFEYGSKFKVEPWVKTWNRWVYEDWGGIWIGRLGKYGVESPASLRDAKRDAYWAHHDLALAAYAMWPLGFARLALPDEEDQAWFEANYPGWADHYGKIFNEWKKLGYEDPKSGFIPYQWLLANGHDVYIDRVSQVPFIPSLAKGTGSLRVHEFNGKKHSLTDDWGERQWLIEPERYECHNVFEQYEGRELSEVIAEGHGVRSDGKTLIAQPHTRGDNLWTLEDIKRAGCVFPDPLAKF
T1 sequence (P27354 1-394 partner): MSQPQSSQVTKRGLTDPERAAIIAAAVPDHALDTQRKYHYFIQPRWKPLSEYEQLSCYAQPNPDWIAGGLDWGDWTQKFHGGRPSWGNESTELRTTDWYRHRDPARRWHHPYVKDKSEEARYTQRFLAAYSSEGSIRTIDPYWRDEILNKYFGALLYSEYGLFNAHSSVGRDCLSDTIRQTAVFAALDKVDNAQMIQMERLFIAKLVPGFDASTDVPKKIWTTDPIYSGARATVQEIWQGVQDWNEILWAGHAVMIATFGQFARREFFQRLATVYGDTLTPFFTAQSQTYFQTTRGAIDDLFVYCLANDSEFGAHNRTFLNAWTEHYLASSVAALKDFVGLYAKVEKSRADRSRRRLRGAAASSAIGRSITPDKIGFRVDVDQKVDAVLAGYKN
T1 sequence (P27355 1-169 partner): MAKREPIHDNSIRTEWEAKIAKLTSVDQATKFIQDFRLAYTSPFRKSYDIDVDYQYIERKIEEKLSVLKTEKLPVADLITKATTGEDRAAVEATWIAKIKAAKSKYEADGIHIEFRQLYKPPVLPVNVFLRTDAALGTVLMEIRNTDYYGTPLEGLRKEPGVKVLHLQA
Experimental: . Substrates were injected into the respective reaction vials as follows: gaseous substrates (3 ml) were injected into the headspace of the reaction vial; liquid substrates (50 μls) were injected directly into the protein solution. The protein solution and substrate were allowed to equilibrate for five minutes in a water bath shaker at 30° C. Each reaction was initiated by injection of H2 O2 (20 μl of 1.0 MH2 O2 in water) to a concentration of about 100 mM H2 O2. After an appropriate period (2 minutes) a portion of the reaction mixture was removed, the reaction terminated, and the sample prepared for analysis.
Samples were analyzed for products as follows: The benzene, substituted benzenes and pyridine samples were analyzed by High Pressure Liquid Chromatography (HPLC). The reaction in each sample was quenched by addition of 2 volumes of ethanol or 3% trichloroacetic acid which caused precipitation of the hydroxylase. The samples were centrifuged for two minutes (10,800×g) and the precipitated hydroxylase removed. A portion of each supernatant was injected into a Beckman HPLC equipped with a reverse-phase column (C18 matrix) and UV detection capability.
All other samples were analyzed by gas chromatography. Except for the methane sample, all analyses were performed as follows: The reaction in each sample was quenched by addition of an equal volume chloroform (CHCl3) followed by vortexing for a brief period. The sample was centrifuged for two minutes (10,800×g) to separate the CHCl3 layer from the sample solution. A portion of the CHCl3 layer was injected into a Hewlett Packard 5890A gas chromatograph (100% methylsilicone column matrix) for analysis of the products.
For the methane sample, the reaction was quenched by addition of 0.1M acid to a pH of 2.9. The resulting aqueous phase was separated from the hydroxylase using a YM30 Centricon ultrafiltration unit. The filtrate was analyzed for methanol by gas chromatography.
Products resulting from the various substrates were identified by comparison with standard compounds.

methane monooxygenase = molecular target: T2, methane monooxygenase (Methylococcus capsulatus, UniProt P22869); settings: Table II, purified component from Methylococcus capsulatus (Bath); cited from earlier work
T2 construct: methane monooxygenases isolated from the Type I organism, Methylococcus capsulatus (Bath); host or cells: Methylococcus capsulatus (Bath)
T2 sequence (P22869 whole entry, looked up): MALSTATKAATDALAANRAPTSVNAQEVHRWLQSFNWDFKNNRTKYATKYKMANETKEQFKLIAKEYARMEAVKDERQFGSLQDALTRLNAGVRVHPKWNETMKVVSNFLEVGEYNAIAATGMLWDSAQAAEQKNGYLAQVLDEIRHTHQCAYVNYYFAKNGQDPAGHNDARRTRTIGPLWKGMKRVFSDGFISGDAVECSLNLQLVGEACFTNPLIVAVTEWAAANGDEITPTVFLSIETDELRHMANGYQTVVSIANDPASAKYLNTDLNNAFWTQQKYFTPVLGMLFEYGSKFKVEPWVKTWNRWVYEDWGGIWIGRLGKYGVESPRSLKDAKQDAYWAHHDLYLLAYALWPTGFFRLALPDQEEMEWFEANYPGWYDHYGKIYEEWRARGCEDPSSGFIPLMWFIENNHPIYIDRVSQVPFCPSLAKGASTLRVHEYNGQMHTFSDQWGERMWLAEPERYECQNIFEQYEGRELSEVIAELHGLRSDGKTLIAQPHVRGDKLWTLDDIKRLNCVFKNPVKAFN

physchem = format: physicochemical; settings: water, 30° C.
[2] = molecular target: T3, complete methane monooxygenase (Methylosinus trichosporium, UniProt P27353); experiment: Polarographic assay of methane monooxygenase activity with furan as substrate; format: biochemical, Methylosinus trichosporium OB3b
T3 construct: A soluble three-component methane monooxygenase from the Type II methanotroph Methylosinus trichosporium OB3b was purified to homogeneity; endogenous in cells; host or cells: Methylosinus trichosporium OB3b, grown on methane; components purified from cell-free extract
T3 sequence (P27353 1-526): T1 sequence (P27353 1-526)
T3 sequence (P27354 1-394 partner): T1 sequence (P27354 1-394 partner)
T3 sequence (P27355 1-169 partner): T1 sequence (P27355 1-169 partner)
Experimental: Enzyme Assays--Assays of bacterial cells were performed at 30° C. using cells harvested directly from the fermentor vessel. Methane oxidation was measured by gas chromatography by monitoring depletion of methane from the headspace of 30 ml reaction vials. Oxygen consumption was measured polarographically as described by Arciero et al. (J. Biol. Chem. 258, 14981-14991, 1983). The bacterial suspension was supplemented with 100 μM formaldehyde before gas chromatographic assays for conversion of propene to propene oxide in order to allow adequate regeneration of NADH by endogenous formaldehyde and formate dehydrogenases. Gas chromatographic and polarographic assays of the methane monooxygenase system were performed as described by Fox et al. (Biochem. Biophys. Res. Comm. 154, 165-170, 1988). Unless explicitly stated, the specific activity values reported for the enzyme components are those observed during the hydroxylation reaction in the presence of optimal concentrations of the other components of the methane monooxygenase. The optimal concentrations were determined by varying the concentration of one component relative to fixed concentrations of the other two components. In routine polarographic assays of methane monooxygenase activity, furan is an acceptable substrate with characteristics which facilitate the assay. […]

[3] = 90 psi propane, up to two days, t-butyl peroxide; cited from earlier work

Molecule: c1ccccc1 [Benzene]
Relative Distribution (Percent), product Phenol [1]: 100%

Molecule: reductase from Methylococcus capsulatus (Bath): literature reductase, Colby et al. 1979
Specific activity (methane monooxygenase): 6000

Molecule: CCCC [Butane]
Relative Distribution (Percent), product 1-butanol [1]: 64%
Relative Distribution (Percent), product 2-butanol [1]: 36%

Molecule: c1ccncc1 [Pyridine]
Relative Distribution (Percent), product Pyridine-N-oxide [1]: 100%

Molecule: c1ccoc1 [furan]
solubility (physchem): 64 mM (≈ 4360 µg/mL)
Km ([2]; read-out: KM(app)): 0.02 mM
turnover number ([2]; relative to the hydroxylase): 7.6 s⁻¹

Molecule: Fe2 O(OAc)2 Cl2 (bipy)2
yield of 2-propanol from propane [3]: 8.8%

Molecule: O=[N+]([O-])c1ccccc1 [Nitrobenzene]
Relative Distribution (Percent), product m-Nitrophenol [1]: 53%
Relative Distribution (Percent), product o-Nitrophenol [1]: 5%
Relative Distribution (Percent), product p-Nitrophenol [1]: 42%

Continued, values first:

Relative Distribution (Percent), product 2-methyl-1-butanol [1]: 25%
Relative Distribution (Percent), product 2-methyl-2-butanol [1]: 41%
Relative Distribution (Percent), product 3-methyl-1-butanol [1]: 11%
Relative Distribution (Percent), product 3-methyl-2-butanol [1]: 24%
Molecule: CCC(C)C [Isopentane]

Relative Distribution (Percent), product Methanol ([1]; about 100 mM H2O2, 2 minutes): 100%
Molecule: C [Methane]

Relative Distribution (Percent), product 1-propanol [1]: 15%
Relative Distribution (Percent), product 2-propanol [1]: 85%
Molecule: CCC [Propane]

Relative Distribution (Percent), product 2-methyl-1-propanol [1]: 61%
Relative Distribution (Percent), product 2-methyl-2-propanol [1]: 39%
Molecule: CC(C)C [Isobutane]

Relative Distribution (Percent), product 1-methylcyclobutanol [1]: 14%
Relative Distribution (Percent), product 3-methyl-3-buten-1-01 [1]: none detected
Relative Distribution (Percent), product Methylcyclopropylmethanol [1]: 86%
Molecule: CC1(C)CC1 [1,1-dimethylcyclopropane]

Relative Distribution (Percent), product Ethanol [1]: 100%
Molecule: CC [Ethane]

Relative Distribution (Percent), product Propylene Oxide [1]: 100%
Molecule: C=CC [Propene]
